Here are results for one substance from US9084770B2, “Modulation of insulin like growth factor I receptor expression in cancer” (Antisense Therapeutics, Ltd., priority 2008, dated 2015).

Marks after values point to notes of the source that are not given here.

Series [1] has as its system IGF-IR mRNA. Kind of series: IGF-IR mRNA in PC3 Ptx-R cells. It is filed as cell-based, human. Particulars: 10 to 200 nM, compared to oligofectamine transfection reagent. The source says:
(§1) The PC3 Ptx-R cells retain sensitivity to ATL1101-induced IGF-IR down regulation at the mRNA and protein level as shown in FIGS. 11A-C. […] ATL1101 and the control oligodeoxynucleotide ISIS 306064 had no effect on either of the alternative spliced isoform transcripts of the insulin receptor, IR-A, IR-B or IR-β protein or vinculin protein levels.

The test system of series [2] is IGF-IRB subunit. Kind of series: IGF-IRB immunoblot in PC3 cells with or without Paclitaxel. It is filed as cell-based, human. The settings on record: 50 nM, with or without 1 nM Paclitaxel. From the text:
Vinculin expression is shown as a loading control.
For orientation: Immunoblotting shows a protein as a band on a membrane.

Series [3] concerns IGF-IRβ, p-AKT, pERK1/2. Kind of series: PC3 xenograft tumor proteins, western blotting. It is filed as in vivo. The settings on record: after 7 days of treatment; two of three mice. As to the method:
Total PC3 xenograft tumor proteins were extracted after the treatment of IGFI-R antisense oligonucleotide or control oligodeoxynucleotide for 7 days and IGF-IRβ, p-AKT, pERK1/2, and vinculin protein levels were analyzed by western blotting. Tumor growth ratio of corresponding tumors are also shown (FIG. 5E).

The test system of series [4] is IGF-IR mRNA. The settings on record: other cell lines, dose-dependent and sequence specific; cited from earlier work.
In series [5] the test system is Ki67. Kind of series: Ki67 immunohistochemistry in psoriatic skin biopsies after topical treatment. Particulars: topically applied. It counts as in vivo. As to the method:
The present inventors assessed proliferation by Ki67 labeling in paraffin wax-embedded, formalin-fixed, 3 mm diameter, full-thickness psoriatic skin biopsies at the conclusion of the treatment phase of topically applied ATL1101. The tissue was analyzed to assess the effect of the antisense treatments on Ki67 expression using immunohistochemical analysis.

Series [6] concerns IGF-IR protein (IGF-IRB subunit). Kind of series: IGF-IR protein in transfected LNCaP and PC3 cells, immunoblot. It is filed as cell-based, human. As to the method:
(§2) Established methods were used to test the activity of IGF-IR antisense oligonucleotide on LNCaP and PC-3 cell growth (crystal violet assay) and apoptosis (FACS). Dose- and sequence-specific suppression of IGF-IR mRNA and protein expression in ATL1101-treated LNCaP and PC3 PC cell lines in vitro were observed by QT-PCR and western blotting. Effects of the IGF-IR antisense oligonucleotide on various putative targets, including IGF-IR and downstream targets were evaluated using western blotting.
FIGS. 1B(i)-1B(ii) show sequence-specific and dose-dependent inhibition of IGF-IR protein by IGF-IR antisense oligonucleotide in LNCaP (FIG. 1B (i)) and PC-3 (FIG. […]) cells. […] Two days after the second transfection, whole cell detergent lysates were prepared and 30 μg of total protein was subjected to SDS-PAGE and immunoblotted for IGF-IRB subunit, IR-BB subunit and vinculin expression. Oligofectamine, oligofectamine treated cells only. In LNCaP cells, IGF-IR expression was >80% suppressed by 10 nM ATL1101 and was undetectable at 100 nM ATL1101. In PC3 cells, IGF-IR expression was suppressed ˜50% at 10 nM ATL1101, >80% at 50 nM ATL1101 and >90% at 200 nM. […] Vinculin expression is shown as a loading control.

For series [7], the system named is IGF-IRβ subunit protein. Kind of series: IGF-IRβ subunit protein in PC3 Ptx-R cells. It is filed as cell-based, human. The settings on record: 10 to 200 nM, compared to oligofectamine transfection reagent.
Description: as §1

For series [8], the system named is LNCaP cells. Kind of series: LNCaP cell viability, crystal violet assay. It counts as cell-based, human. As to the method:
as §2
Cells were transfected with indicated concentrations of ATL1101, control oligodeoxynucleotides or oligofectamine as in FIGS. 1A(i)-1A(ii). Three days after treatment, cell viability was determined by crystal violet assay. Viable cell density was normalized to that of cells treated with oligofectamine. Points, means of triplicate analysis; bars, SE. *, p<0.05 differs from control oligodeoxynucleotide treatment group. **, p<0.01 differs from control oligodeoxynucleotide treatment group by Student's t test.

In series [9] the test system is PC3 cells. Kind of series: PC3 cell cycle and apoptosis, flow cytometry with propidium iodide. Particulars: PC3, FBS condition, 200 nM. It is filed as cell-based, human. As to the method: as §2
The Effect of IGF-IR silencing with IGF-IR antisense oligonucleotide (ATL1101) on LNCaP and PC3 cell apoptosis and cell cycle is shown in FIGS. 4A(i)-(ii), 4B, 4C(i)-(ii), and Table 2. Cells were transfected with indicated concentrations of ATL1101, control oligodeoxynucleotide or oligofectamine as in FIGS. 1A(i)-1B(ii). Two days after treatment, cell cycle analysis was determined by flow cytometry using propidium iodide staining. […] In FIGS. 4C(i)-(ii), LNCaP (FIG. 4C (i)) or PC-3 (FIG. 4C (ii)) cells were transfected with indicated concentration of ATL1101 or control oligodeoxynucleotide (ISIS 306064) for two days. Cells were then cultured in FBS media for one day and in serum-free media for one day. Whole cell lysates (30 μg) were subjected to SDS-PAGE and immunoblotted to assess Cyclin D1, Cyclin E, p-RB, total Rb, and p27 protein levels. Oligo, oligofectamine treated cells only.

Series [10] has as its system LNCaP tumors. Kind of series: LNCaP xenograft after castration, tumor volume and serum PSA. Particulars: 15 mg/kg i.p. once daily for 7 days and 3 times per week thereafter; vs control oligodeoxynucleotide. It counts as in vivo, mice. As to the method:
One million PC-3 or LNCaP cells were injected subcutaneously in athymic mice. For LNCaP xenografts, when PSA values exceeded 50 ng/ml, mice were castrated and randomly selected for treatment with ATL1101 or control oligodeoxynucleotide (15 mg/kg) injected i.p. once daily for 7 days and 3 times per week thereafter. Blood samples were obtained from the tail vein of the mice once weekly to measure serum PSA by ELISA. For PC-3 xenografts, when tumors reached 100 mm^3, mice were randomly selected and treated with the same protocol as LNCaP.
The effects of IGF-IR antisense oligonucleotide treatment in LNCaP and PC-3 tumors in vivo are show in FIGS. 5A-5C. LNCaP cells were inoculated s.c. and when PSA values exceeded 50 ng/ml, mice were castrated and randomly selected for treatment with ATL1101 or control oligodeoxynucleotide (15 mg/kg) injected i.p. once daily for 7 days and 3 times per week thereafter. Blood samples were obtained from the tail vein of the mice once weekly to measure serum PSA by ELISA. PC-3 cells were inoculated s.c. and when tumors reached 100 mm^3, mice were randomly selected for treatment with the same protocol as LNCaP. Each point represents the mean tumor volume in each group containing 10 mice; bars, SE. * differs from control oligodeoxynucleotide treatment group (p<0.05) by Student's t test.

For the substance “cgaaggaaacaatactccga (CGAAGGAAACAATACTCCGA; 2'-MOE modified, pattern not given here) [ISIS 175317, 2′-MOE-modified IGF-IR antisense oligonucleotide, also known as ATL1101]”, in series [1], the “IGF-IR mRNA levels” value was “specifically reduced”. For the same substance, the IGF-IRB levels entry in series [2] is “specifically reduced”. Also, in [3], the “IGF-IR expression in tumor” value is listed as “decreased”; the “activation of AKT and ERK1/2 in tumor” value is “suppressed”. The “inhibition of IGF-IR mRNA expression” value in [4] is “significantly inhibit”. In addition, in [5], the “Ki67 by length (mm) and area (mm squared) vs. mismatch control” value is “Statistically significant reduction”. In addition, in series [6] (LNCaP cells, 10 nM, two days after second transfection), the “suppression of IGF-IR protein expression” value is reported as more than 80%. Moreover, in series [6] (LNCaP cells, 100 nM), the IGF-IR protein expression result is reported as “undetectable”. Further, the “suppression of IGF-IR protein expression” value in [6] (PC3 cells, 10 nM) was approximately 50%. Also, the “suppression of IGF-IR protein expression” value in series [6] (PC3 cells, 50 nM) is reported as more than 80%. In addition, the “suppression of IGF-IR protein expression” value in [6] (PC3 cells, 200 nM) is listed as more than 90%. Moreover, the “IGF-IRβ subunit protein levels” value in series [7] is recorded as “specifically reduced”. Further, in series [8] (FBS media, achieved by 100 nM, three days after treatment), the “maximum reduction of cell viability relative to control” value is recorded as approximately 60%. Besides, in series [8] (androgen-deprived conditions (CSS), 25 nM), the “suppression of cell viability” value came out at 60%. In series [9], the “% of total cells, G0/G1” value is 19.3%; the “% of total cells, G2/M” value was determined as 8.4%; the “% of total cells, S” value is on record as 9.8%; the “% of total cells, Sub G0/G1” value is reported as 62.5%. In addition, the “subG0/G1 + G0/G1:S + G2/M” value in [9] is 4.5**. In series [10], the “PSA rise rates after castration” value is “significantly delayed” and the “tumor growth after castration” value was “significantly delayed”.
